In brackets after ≈: the same amount, converted by molar mass. Where only a bound is given, the exact number is not on record here.

Broadly, the kinetic solubility is solubility judged after dilution from a stock solution rather than from solid.

The conditions of this data set: buffer; pH 7.4; 200.0 µM.
In the case of `O=C(c1ccc([N+](=O)[O-])cc1)N1CCCC1`, the kinetic solubility was > 33 µg/mL.
As for `C=CCn1c(O)c(C(CC)=Nc2ccc(C(=O)O)cc2)c(=O)[nH]c1=O`, the figure is > 51.5 µg/mL; as for `O=C(CCNC(=O)c1ccc(Br)cc1)Nc1ncccc1O`, 52.3 µg/mL (≈ 144 µM); as for `COCCn1c(N)c(N(Cc2ccccc2)C(=O)Cc2ccccc2F)c(=O)[nH]c1=O`, 62.9 µg/mL (≈ 147 µM).
For the compound `COc1ccc(F)cc1COc1nc(C)nc2ccccc12`, the solubility (kinetic) is 28.3 µg/mL (≈ 94.9 µM).
Regarding `CC(=O)C(c1ccccc1)C(c1ccccc1)C(C)[N+](=O)[O-]` (stereo not drawn), the solubility (kinetic) is < 0.6 µg/mL.
As for `CCC1CCCCN1CC(=O)c1c(C)[nH]c2ccc(OC)cc12` (stereo not drawn), the figure is 35 µg/mL (≈ 111 µM); as for `CN(C)/C=C(\C#N)C(=O)Nc1ccc(F)c(Cl)c1`, 2 µg/mL (≈ 7.47 µM).
To `CCCSc1nc2sc3c(c2c(=O)[nH]1)CC(C)(CC)OC3` (stereo not drawn) belongs 1.5 µg/mL (≈ 4.62 µM); to `O=C(/C=C/c1cccc([N+](=O)[O-])c1)c1ccco1`, 1.7 µg/mL (≈ 6.99 µM).
Turning to `C=CCN(CC=C)CC(=O)Nc1cccc(Oc2cnccn2)c1`, the solubility (kinetic) was > 48.7 µg/mL.
As for `Cc1cc(NC(=O)CSc2nccn2-c2cccc(F)c2)no1`, the figure is > 49.9 µg/mL.
The compound `CC(NCCN(C)C)C(=O)C12CC3CC(CC(C3)C1)C2.Cl` (stereo not drawn) gave a solubility (kinetic) of 52.4 µg/mL.
To `CC(NC(=S)NC(=O)c1ccccc1)c1ccccc1` (stereo not drawn) belongs 6.4 µg/mL (≈ 22.5 µM); to `CC1=C([N+](=O)[O-])C(c2ccccc2Cl)NC(=O)N1` (stereo not drawn), > 40.2 µg/mL.
As for `CCCCCC(=O)NC(=S)Nc1ccc2oc(=O)ccc2c1`, the figure is 1.5 µg/mL (≈ 4.71 µM); as for `Cc1ccccc1C(=O)O/N=C(\N)c1ccccc1`, 34.3 µg/mL (≈ 135 µM); as for `COc1ccc(S(=O)(=O)N2CCOCC2)cc1NC(=O)COc1ccc2ccc(=O)oc2c1`, 6 µg/mL (≈ 12.6 µM).
The compound `Cc1cc(C)c(S(=O)(=O)NCC(=O)NCc2ccco2)c(C)c1` showed a solubility (kinetic) of 44.2 µg/mL (≈ 131 µM).
Compound `COc1ccc(NC(=S)NC(=O)/C=C/c2ccco2)cc1` registered a kinetic solubility of 1.2 µg/mL (≈ 3.97 µM).
To `CCOC(=O)CC1C(=O)NCCN1Cc1ccc(OC)c(OC)c1` (stereo not drawn) belongs > 50.5 µg/mL.
The compound `O=C(Nc1ccccc1)/C(=C/c1ccccc1)NC(=O)c1ccco1` yielded a kinetic solubility of 1.2 µg/mL (≈ 3.61 µM).
As for `CCCS(=O)(=O)c1cnc(C2COc3ccccc3O2)nc1N` (stereo not drawn), the figure is 12.7 µg/mL (≈ 37.9 µM).
`CC1=C(C)C(O)N(Cc2ccccc2)C1=O` (stereo not drawn): the solubility (kinetic) is > 32.6 µg/mL.
For `O=C(CC(=O)c1ccccc1)Nc1ccccc1`, the solubility (kinetic) came to 29.5 µg/mL (≈ 123 µM).
To `C=CCOn1c(=O)c(-c2ccc(C)cc2)[n+]([O-])c2ccccc21` belongs 5.7 µg/mL (≈ 18.5 µM); to `O=C(Nc1ccc(Cl)cc1Cl)c1ccc(Br)o1`, < 0.7 µg/mL.
With `O=C(CNC(=O)c1ccc2c(c1)OCO2)NCc1cccs1`, the solubility (kinetic) is 34.8 µg/mL (≈ 109 µM).
To `O=C(Nc1ccccc1Cc1ccccc1)c1ccccc1F` belongs 3.1 µg/mL (≈ 10.2 µM); to `CCCN1CCC(NC(=S)Nc2ccc([N+](=O)[O-])cc2)CC1`, > 48.4 µg/mL; to `COc1ccc(S(=O)(=O)N(Cc2ccccc2)c2ccccc2C(=O)O)cc1`, 53.7 µg/mL (≈ 135 µM).
As for `COc1ccccc1C1CCN(Cc2ccc(C)cc2)CC1`, the figure is 29.8 µg/mL (≈ 101 µM); as for `COc1ccc(N2CCN(C(=O)c3cc4ccccc4o3)CC2)cc1`, < 0.4 µg/mL.
As for `CCN(C(=O)COC(=O)c1cc2c(s1)CCCC2)c1c(N)n(Cc2ccccc2)c(=O)[nH]c1=O`, the figure is 3.3 µg/mL (≈ 6.84 µM).
In the case of `COc1ccccc1CC(=O)N(Cc1ccccc1)c1ccc(C)cc1`, the solubility (kinetic) came out at 10 µg/mL (≈ 28.9 µM).
`O=C(Cc1cccs1)NCc1ccccc1Br` yielded a solubility (kinetic) of 24.8 µg/mL (≈ 79.9 µM).
To `O=C(CN1C(=O)c2ccccc2C1=O)Nc1cccc(O)c1` belongs 37 µg/mL (≈ 125 µM); to `CC1(C)Oc2ccc3ccc(=O)oc3c2C(/C=N/O)=C1Cl`, 12.5 µg/mL (≈ 40.9 µM); to `O=C(c1cc2ccccc2oc1=O)N1CCOCC1`, > 38.9 µg/mL.
Turning to `Cc1ccc([N+](=O)[O-])c(OCCN2C(=O)NC(C)(C)C2=O)c1`, the kinetic solubility was > 46.1 µg/mL.
As for `N#Cc1ccsc1NC(=O)COC(=O)c1ccc(Br)o1`, the figure is 10.5 µg/mL (≈ 29.6 µM); as for `CSc1ncccc1C(=O)OCC(=O)Nc1ccc(N2CCOCC2)cc1`, 10.6 µg/mL (≈ 27.4 µM).
To `CC1(C)CC(=O)C=C(Nc2ccc(O)c(C(=O)O)c2)C1` belongs > 41.3 µg/mL.
`Cc1cc(C)n(CC(=O)NC2CCCCC2C)c(=O)c1C#N` (stereo not drawn) came in with a solubility (kinetic) of 16.7 µg/mL (≈ 55.4 µM).
To `COc1ccccc1N1C(=O)S/C(=C\c2ccc(C)s2)C1=O` belongs < 0.7 µg/mL; to `O=C(Cn1ncc2c([nH]c3ccccc32)c1=O)N1CCOCC1`, > 46.8 µg/mL.
To `O=C(CNc1ccccc1F)Nc1cccc2ccccc12` belongs 10.4 µg/mL (≈ 35.3 µM); to `COc1cccc(C2C([N+](=O)[O-])=C(N)Oc3cc(C)oc(=O)c32)c1` (stereo not drawn), > 49.5 µg/mL; to `Cc1ccc(NC(=S)NC2CCCC2)c(C)c1`, 33.3 µg/mL (≈ 134 µM).
To `O=C(O)CCc1ccc(-c2ccccc2)n1-c1ccc(C(=O)O)cc1` belongs 47 µg/mL (≈ 140 µM); to `NC(=O)c1ccsc1NC(=O)c1ccc([N+](=O)[O-])o1`, 20.5 µg/mL (≈ 72.9 µM); to `COc1ccccc1OCCn1c(=O)n(C)c2ccccc21`, 42.2 µg/mL (≈ 141 µM).
The compound `N=c1oc2ccccc2cc1C(=O)Nc1ccc(F)cc1` yielded a kinetic solubility of 0.6 µg/mL (≈ 2.13 µM).
Take `O=C(CSc1ccc(F)cc1)Nc1cccc(S(=O)(=O)N2CCOCC2)c1`: the kinetic solubility was > 61.6 µg/mL.
As for `O=C(/C=C/c1ccccc1)NCCc1nc2ccccc2[nH]1`, the figure is 23.7 µg/mL (≈ 81.3 µM).
As for `CCn1c(/C=C/c2ccccc2F)nc2ccccc2c1=O`, the solubility (kinetic) is 2.2 µg/mL (≈ 7.47 µM).
Compound `O=S(=O)(c1ccccc1)N1CC=C(c2ccccc2)CC1` returned a kinetic solubility of 1.1 µg/mL (≈ 3.67 µM).
To `CN1CCC(NC(=S)NC2CC2)CC1` belongs > 32 µg/mL; to `CCOC(=O)c1cnc2c(C)cccc2c1NCCCN1CCOCC1`, > 53.6 µg/mL; to `COc1ccc(NC(=O)C2CCCN(C(=O)Nc3ccc(F)cc3)C2)cc1OC` (stereo not drawn), 13.2 µg/mL (≈ 32.9 µM).
For the compound `CCC1(c2ccc(N)cc2)CCC(=O)NC1=O` (stereo not drawn), the solubility (kinetic) was > 34.8 µg/mL.
Consider `Cc1ccc(C(=O)N2CCN(c3ncccn3)CC2)cc1`, for which the kinetic solubility is > 42.4 µg/mL.
Consider `O=C(O)C1CCCN(C(=O)c2cccc3ccccc23)C1` (stereo not drawn), for which the solubility (kinetic) was > 42.5 µg/mL.
As for `c1ccc(N2CCN(Cc3cnc(N4CCOCC4)s3)CC2)cc1`, the figure is > 51.7 µg/mL; as for `CCOC(=O)c1[nH]cnc1C(=O)Nc1ccc(C)cc1`, 4.9 µg/mL (≈ 17.9 µM).
To `CCC1(CC)Cc2ccccc2C(=O)N1` belongs > 30.5 µg/mL; to `Cc1cc(C)c(-c2c(O)c3cccnc3n(C)c2=O)c(C)c1`, 43.4 µg/mL (≈ 147 µM).
As for `COc1ccc(Cl)cc1NC(=O)/C=C/C(=O)O`, the figure is > 38.3 µg/mL; as for `COc1cc(S(=O)(=O)N2CCn3cccc3C2C)ccc1NC(C)=O` (stereo not drawn), > 54.5 µg/mL; as for `CCC[C@H](N[C@@H](CCC)[C@H](O)c1ccccc1)[C@H](O)c1ccccc1`, 5.4 µg/mL (≈ 15.8 µM).
`COC(=O)CNC(=O)C12CC3CC(C1)CC(c1ccc(C)cc1)(C3)C2` yielded a solubility (kinetic) of 6.5 µg/mL (≈ 19 µM).
As for `Cn1cccc1C(=O)OCC(=O)N1CC(=O)Nc2ccccc21`, the figure is 45.1 µg/mL (≈ 144 µM); as for `Cc1ccc(S(=O)(=O)NC(=O)c2ccc(F)cc2)c(C)c1`, > 46.1 µg/mL.

Values taken from PubChem BioAssay AID1996.
